Assay results published in ChEMBL document CHEMBL1201862, “PubChem BioAssay data set” (2004).
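Tested at 5 concentrations; 48 h exposure; 96-well plates; endpoints linearly interpolated, else capped at highest concentration. Abbreviation: GI50, concentration required for 50% inhibition of growth.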 The source made the active and inactive calls. Cut-off read from the data, not from the text of the source: active = GI50 up to about 1.1 µM and inactive = higher.

What was measured:
Assay in all cases: inhibition of tumour cell growth, NCI panel, 48 h
SNB-19 = tested on: SNB-19
TK-10 = tested on: TK-10
SF-295 = tested on: SF-295
IGROV-1 = tested on: IGROV-1
NCI-H522 = tested on: NCI-H522
UACC-257 = tested on: UACC-257
Malme-3M = tested on: Malme-3M
LOX IMVI = tested on: LOX IMVI
COLO 205 = tested on: COLO 205
SF-539 = tested on: SF-539
OVCAR-8 = tested on: OVCAR-8
786-0 = tested on: 786-0
U-251 = tested on: U-251
CAKI-1 = tested on: CAKI-1
SR = tested on: SR
KM12 = tested on: KM12
SN12C = tested on: SN12C
Hs-578T = tested on: Hs-578T
MDA-MB-435 = tested on: MDA-MB-435
A498 = tested on: A498

Measured: GI50

O=C(/C=C/c1ccc(OCCSCCCCCCCCCCSCCOc2ccc(/C=C/C(=O)c3ccc(Cl)cc3)cc2)cc1)c1ccc(Cl)cc1
inactive: SNB-19 > 74.3 µM | TK-10 > 100 µM | SF-295 65.8 µM | IGROV-1 > 100 µM | NCI-H522 > 89.3 µM | UACC-257 > 100 µM | Malme-3M > 100 µM | LOX IMVI > 100 µM | COLO 205 > 100 µM | SF-539 45.6 µM | OVCAR-8 > 100 µM | 786-0 75.3 µM | U-251 65.8 µM | CAKI-1 > 83.2 µM | SR > 92.7 µM | KM12 > 100 µM | SN12C > 100 µM | Hs-578T > 78.5 µM | MDA-MB-435 > 100 µM | A498 > 100 µM

CC(C)(C)OC(=O)N1CCC2(CC1)C(=O)NCN2c1ccccc1
inactive: SNB-19 > 100 µM | TK-10 > 100 µM | SF-295 > 100 µM | IGROV-1 > 100 µM | NCI-H522 > 100 µM | UACC-257 > 100 µM | Malme-3M > 100 µM | LOX IMVI > 100 µM | COLO 205 > 100 µM | SF-539 > 100 µM | OVCAR-8 > 100 µM | 786-0 > 100 µM | U-251 > 100 µM | CAKI-1 > 100 µM | SR > 100 µM | KM12 > 100 µM | SN12C > 100 µM | Hs-578T > 100 µM | MDA-MB-435 > 100 µM | A498 > 100 µM

N#C/C(N)=C(C#N)/N=C/Nc1ccc(N)cc1
inactive: SNB-19 > 100 µM | TK-10 > 100 µM | SF-295 > 100 µM | IGROV-1 > 100 µM | NCI-H522 > 100 µM | UACC-257 > 100 µM | Malme-3M > 100 µM | LOX IMVI > 100 µM | COLO 205 > 100 µM | SF-539 > 100 µM | OVCAR-8 > 100 µM | 786-0 > 100 µM | U-251 > 100 µM | CAKI-1 > 100 µM | SR > 100 µM | KM12 > 100 µM | SN12C > 100 µM | Hs-578T 95.3 µM | MDA-MB-435 > 100 µM | A498 > 100 µM

COC(=O)C1=CO[C@@H](OC2OC(CO)C(O)C(O)C2O)[C@@H]2[C@H](C)[C@@H](O)[C@@H](O)[C@]12O (stereo not given in full)
inactive: SNB-19 > 100 µM | TK-10 > 100 µM | SF-295 > 100 µM | IGROV-1 > 100 µM | NCI-H522 > 100 µM | UACC-257 > 100 µM | Malme-3M > 100 µM | LOX IMVI > 100 µM | COLO 205 > 100 µM | SF-539 > 100 µM | OVCAR-8 > 100 µM | 786-0 > 100 µM | U-251 > 100 µM | CAKI-1 13.4 µM | SR > 100 µM | KM12 > 100 µM | SN12C > 100 µM | Hs-578T > 100 µM | MDA-MB-435 > 100 µM | A498 > 100 µM

COC(=O)CC1(O)C(/C=C/c2ccccc2)C(C(=O)OC)C(=O)C(C(=O)OC)C1C(=O)OC (stereo not given)
inactive: SNB-19 45.6 µM | TK-10 > 100 µM | SF-295 18.5 µM | IGROV-1 > 100 µM | NCI-H522 49.5 µM | UACC-257 > 100 µM | Malme-3M > 100 µM | LOX IMVI 26.7 µM | COLO 205 > 100 µM | SF-539 > 100 µM | OVCAR-8 > 100 µM | 786-0 > 100 µM | U-251 79.3 µM | CAKI-1 > 100 µM | SR > 100 µM | KM12 > 100 µM | SN12C > 100 µM | Hs-578T > 100 µM | MDA-MB-435 > 100 µM | A498 > 100 µM
